Reference: patent publication US20250313546A1, “NUCLEIC ACID BINDERS” (UNIVERSITY OF STRATHCLYDE, priority 2022, published 2025)
In brackets after ≈: the same amount, converted by molar mass.

How the values were obtained:
Assay type in all cases: cell-based
[1] = system: Escherichia coli (ATCC 25922); assay: Antibacterial MIC, broth microdilution (CLSI); conditions: for MIC80: Escherichia coli, ATCC25922, read-out: MIC80 E. coli
[2] = system: Staphylococcus aureus (ATCC 43300); assay: Antibacterial MIC, broth microdilution (CLSI); conditions: for MIC80: Staphylococcus aureus, ATCC43300, read-out: MIC80 S. aureus
[3] = system: Enterococcus faecalis (ATCC 51299); assay: Antibacterial MIC, broth microdilution (CLSI); conditions: for MIC80: Enterococcus faecalis, ATCC51299, read-out: MIC80 E. faecalis
T. vaginalis = assay: Trichomonas resorufin assay
[4] = SI, IC50 (μM)/MIC80 (μM), HEK293 cytotoxicity, Alkyl Amidines and NH Pyrroles

With [H]/N=C(\CCNC(=O)c1cc(NC(=O)c2cc(NC(=O)c3ccc(C=Cc4ccc(N(C)C)cc4)nc3)cn2C)cn1C)NCCN1CCSCC1 [Ia52, (E)-6-(4-(dimethylamino)styryl)-N-(5-((5-((3-imino-3-((2-thiomorpholinoethyl)amino)propyl)carbamoyl)-1-methyl-1H-pyrrol-3-yl)carbamoyl)-1-methyl-1H-pyrrol-3-yl)nicotinamide] the MIC80 [1] was over 100 µM, the MIC80 [2] was 5 to 25 µM (≈ 3.55 to 17.8 µg/mL) and the MIC80 [3] was over 100 µM.

Compound C/N=C(\CCNC(=O)c1cc(NC(=O)c2cc(NC(=O)c3ccc(/C=C/c4cccc(OC)c4)cc3)cn2C)cn1C)NC [Ia53, 4-(4-((E)-3-methoxystyryl)benzamido)-1-methyl-N-(1-methyl-5-(((E)-3-(methylamino)-3-(methylimino)propyl)carbamoyl)-1H-pyrrol-3-yl)-1H-pyrrole-2-carboxamide] has an MIC80 [1] of over 100 µM, an MIC80 [2] of under 5 µM and an MIC80 [3] of 5 to 25 µM (≈ 2.98 to 14.9 µg/mL).

With C/N=C(\CCNC(=O)c1cc(NC(=O)c2cc(NC(=O)c3ccc(/C=C/c4ccc(OC)cc4)nc3)cn2C)cn1C)NC [Ia54, 6-((E)-4-methoxystyryl)-N-(1-methyl-5-((1-methyl-5-(((E)-3-(methylamino)-3-(methylimino)propyl)carbamoyl)-1H-pyrrol-3-yl)carbamoyl)-1H-pyrrol-3-yl)nicotinamide] the MIC80 [1] was over 100 µM, the MIC80 [2] was 5 to 25 µM (≈ 2.98 to 14.9 µg/mL) and the MIC80 [3] was 5 to 25 µM (≈ 2.98 to 14.9 µg/mL).

Work on CNC(=N)CCNC(=O)c1cc(NC(=O)c2cc(NC(=O)c3ccc(/C=C/c4ccc(OC)cc4)nc3)cn2C)cn1C [Ia55, (E)-N-(5-((5-((3-imino-3-(methylamino)propyl)carbamoyl)-1-methyl-1H-pyrrol-3-yl)carbamoyl)-1-methyl-1H-pyrrol-3-yl)-6-(4-methoxystyryl)nicotinamide] yielded an MIC80 [1] of over 100 µM, an MIC80 [2] of 5 to 25 µM (≈ 2.91 to 14.6 µg/mL) and an MIC80 [3] of 5 to 25 µM (≈ 2.91 to 14.6 µg/mL).

Compound CNC(=N)CCNC(=O)c1cc(NC(=O)c2cc(NC(=O)c3ccc(/C=C/c4cccc(OC)c4)cc3)cn2C)cn1C [Ia56, (E)-N-(3-imino-3-(methylamino)propyl)-4-(4-(4-(3-methoxystyryl)benzamido)-1-methyl-1H-pyrrole-2-carboxamido)-1-methyl-1H-pyrrole-2-carboxamide] has an MIC80 [1] of over 100 µM, an MIC80 [2] of 5 to 25 µM (≈ 2.91 to 14.5 µg/mL) and an MIC80 [3] of 5 to 25 µM (≈ 2.91 to 14.5 µg/mL).

In the case of Cn1cc(NC(=O)c2cc(NC(=O)c3ccc(/C=C/c4cnc5ccccc5c4)cc3)cn2C)cc1C(=O)NCC/C(=N/CC(F)F)NCC(F)F [Ia57, N—((Z)-3-((2,2-difluoroethyl)amino)-3-((2,2-difluoroethyl)imino)propyl)-1-methyl-4-(1-methyl-4-(4-((E)-2-(quinolin-3-yl)vinyl)benzamido)-1H-pyrrole-2-carboxamido)-1H-pyrrole-2-carboxamide], the MIC80 [1] is reported as over 100 µM, the MIC80 [2] is reported as under 5 µM and the MIC80 [3] is reported as 5 to 25 µM (≈ 3.58 to 17.9 µg/mL).

COCCNC(=N)CCNC(=O)c1cc(NC(=O)c2cc(NC(=O)c3ccc(/C=C/c4cnc5ccccc5c4)cc3)cn2C)cn1C [Ia58, (E)-N-(3-imino-3-((2-methoxyethyl)amino)propyl)-1-methyl-4-(1-methyl-4-(4-(2-(quinolin-3-yl)vinyl)benzamido)-1H-pyrrole-2-carboxamido)-1H-pyrrole-2-carboxamide] gave an MIC80 [1] of over 100 µM, an MIC80 [2] of under 5 µM and an MIC80 [3] of 5 to 25 µM (≈ 3.23 to 16.2 µg/mL).

C/N=C(/CCNC(=O)c1cc(NC(=O)c2cc(NC(=O)c3ccc(/C=C/c4ccc(F)c(OC)c4)nc3)cn2C)cn1C)NC [Ia59, 6-((E)-4-fluoro-3-methoxystyryl)-N-(1-methyl-5-((1-methyl-5-(((Z)-3-(methylamino)-3-(methylimino)propyl)carbamoyl)-1H-pyrrol-3-yl)carbamoyl)-1H-pyrrol-3-yl)nicotinamide] was tested, and the MIC80 [1] was over 100 µM, the MIC80 [2] was under 5 µM and the MIC80 [3] was over 100 µM.

In the case of C/N=C(/CCNC(=O)c1cc(NC(=O)c2cc(NC(=O)c3ccc(/C=C/c4cncnc4)cc3)cn2C)cn1C)NC [Ia60, 1-methyl-4-(1-methyl-4-(4-((E)-2-(pyrimidin-5-yl)vinyl)benzamido)-1H-pyrrole-2-carboxamido)-N—((Z)-3-(methylamino)-3-(methylimino)propyl)-1H-pyrrole-2-carboxamide], the MIC80 [1] is reported as over 100 µM, the MIC80 [2] is reported as under 5 µM and the MIC80 [3] is reported as 5 to 25 µM (≈ 2.84 to 14.2 µg/mL).

Work on C/N=C(/CCNC(=O)c1cc(NC(=O)c2cc(NC(=O)c3ccc(/C=C/c4cccc(C(F)(F)F)c4)nc3)cn2C)cn1C)NC [Ia61, N-(1-methyl-5-((1-methyl-5-(((Z)-3-(methylamino)-3-(methylimino)propyl)carbamoyl)-1H-pyrrol-3-yl)carbamoyl)-1H-pyrrol-3-yl)-6-((E)-3-(trifluoromethyl)styryl)nicotinamide] yielded an MIC80 [1] of over 100 µM, an MIC80 [2] of 5 to 25 µM (≈ 3.17 to 15.9 µg/mL) and an MIC80 [3] of 5 to 25 µM (≈ 3.17 to 15.9 µg/mL).

Cn1cc(NC(=O)c2cc(NC(=O)c3ccc(/C=C/c4cnc5ccccc5c4)cc3)cn2C)cc1C(=O)NCCC(=N)NCC(F)F [Ia62, (E)-N-(3-((2,2-difluoroethyl)amino)-3-iminopropyl)-1-methyl-4-(1-methyl-4-(4-(2-(quinolin-3-yl)vinyl)benzamido)-1H-pyrrole-2-carboxamido)-1H-pyrrole-2-carboxamide] was tested, and the MIC80 [1] was over 100 µM, the MIC80 [2] was under 5 µM and the MIC80 [3] was under 5 µM.

CN(C)c1ccc(/C=C/c2ccc(C(=O)Nc3cc(C(=O)Nc4cc(C(=O)NCCC(=N)NCC(F)F)n(C)c4)n(C)c3)cn2)cc1 [Ia63, (E)-N-(5-((5-((3-((2,2-difluoroethyl)amino)-3-iminopropyl)carbamoyl)-1-methyl-1H-pyrrol-3-yl)carbamoyl)-1-methyl-1H-pyrrol-3-yl)-6-(4-(dimethylamino)styryl)nicotinamide] showed an MIC80 [1] of over 100 µM, an MIC80 [2] of under 5 µM and an MIC80 [3] of 25 to 100 µM (≈ 16.1 to 64.6 µg/mL).

Compound [H]/N=C(\CCNC(=O)c1cc(NC(=O)c2cc(NC(=O)c3ccc(C=Cc4ccc(N(C)C)cc4)nc3)cn2C)cn1C)N1CCSCC1 [Ib9, (E)-6-(4-(dimethylamino)styryl)-N-(5-((5-((3-imino-3-thiomorpholinopropyl)carbamoyl)-1-methyl-1H-pyrrol-3-yl)carbamoyl)-1-methyl-1H-pyrrol-3-yl)nicotinamide] has an MIC80 [1] of over 100 µM, an MIC80 [2] of under 5 µM and an MIC80 [3] of 25 to 100 µM (≈ 16.7 to 66.8 µg/mL).

With [H]/N=C(\CCNC(=O)c1cc(NC(=O)c2cc(NC(=O)c3ccc(C=Cc4ccc(N(C)C)cc4)nc3)cn2C)cn1C)N1CCN(C)CC1 [Ib10, (E)-6-(4-(dimethylamino)styryl)-N-(5-((5-((3-imino-3-(4-methylpiperazin-1-yl)propyl)carbamoyl)-1-methyl-1H-pyrrol-3-yl)carbamoyl)-1-methyl-1H-pyrrol-3-yl)nicotinamide] the MIC80 [1] was over 100 µM, the MIC80 [2] was 5 to 25 µM (≈ 3.32 to 16.6 µg/mL) and the MIC80 [3] was over 100 µM.

With [H]/N=C(\CCNC(=O)c1cc(NC(=O)c2cc(NC(=O)c3ccc(C=Cc4ccc(N(C)C)cc4)nc3)cn2C)cn1C)N1CCOCC1 [Ib11, (E)-6-(4-(dimethylamino)styryl)-N-(5-((5-((3-imino-3-morpholinopropyl)carbamoyl)-1-methyl-1H-pyrrol-3-yl)carbamoyl)-1-methyl-1H-pyrrol-3-yl)nicotinamide] the MIC80 [1] was over 100 µM, the MIC80 [2] was under 5 µM and the MIC80 [3] was 5 to 25 µM (≈ 3.26 to 16.3 µg/mL).

In the case of CCCCCCCCCCCCCCCCCC[N+](C)(C)CCNC(=O)c1cc(NC(=O)c2cc(NC(=O)c3ccc(/C=C/c4cnc5ccccc5c4)cc3)cn2C)cn1C [Ic17, (E)-N,N-dimethyl-N-(2-(1-methyl-4-(1-methyl-4-(4-(2-(quinolin-3-yl)vinyl)benzamido)-1H-pyrrole-2-carboxamido)-1H-pyrrole-2-carboxamido)ethyl)octadecan-1-aminium], the IC50 (T. vaginalis; Trichomonas vaginalis, read-out: IC50 T. vaginalis) is reported as over 50 µM.

COCCOCCOCC[N+](C)(C)CCNC(=O)c1cc(NC(=O)c2cc(NC(=O)c3ccc(/C=C/c4cnc5ccccc5c4)cc3)cn2C)cn1C [Ic19, (E)-2-(2-(2-methoxyethoxy)ethoxy)-N,N-dimethyl-N-(2-(1-methyl-4-(1-methyl-4-(4-(2-(quinolin-3-yl)vinyl)benzamido)-1H-pyrrole-2-carboxamido)-1H-pyrrole-2-carboxamido)ethyl)ethan-1-aminium] gave an MIC80 [1] of over 100 µM, an MIC80 [2] of under 5 µM and an MIC80 [3] of 5 to 25 µM.

Compound CCCCCC[N+]1(CCNC(=O)c2cc(NC(=O)c3cc(NC(=O)c4ccc(/C=C/c5cnc6ccccc6c5)cc4)cn3C)cn2C)CCOCC1 [Id1, (E)-4-hexyl-4-(2-(1-methyl-4-(1-methyl-4-(4-(2-(quinolin-3-yl)vinyl)benzamido)-1H-pyrrole-2-carboxamido)-1H-pyrrole-2-carboxamido)ethyl)morpholin-4-ium] has an MIC80 [1] of over 100 µM, an MIC80 [2] of under 5 µM and an MIC80 [3] of over 100 µM.

CCCCCCC[N+]1(CCNC(=O)c2cc(NC(=O)c3cc(NC(=O)c4ccc(/C=C/c5cnc6ccccc6c5)cc4)cn3C)cn2C)CCOCC1 [Id2, (E)-4-heptyl-4-(2-(1-methyl-4-(1-methyl-4-(4-(2-(quinolin-3-yl)vinyl)benzamido)-1H-pyrrole-2-carboxamido)-1H-pyrrole-2-carboxamido)ethyl)morpholin-4-ium] gave an MIC80 [1] of over 100 µM, an MIC80 [2] of under 5 µM and an MIC80 [3] of over 100 µM.

Cn1cc(NC(=O)c2cc(NC(=O)c3ccc(/C=C/c4ccc(C(F)(F)F)cc4)cc3)cn2C)cc1C(=O)NCCC(=N)N [Ref-6, reference compound] was tested, and the “S. aureus Selectivity Indices, Group” value [2, 4] was “A (Group A: SI < 3)”, the “E. faecalis Selectivity Indices, Group” value [3, 4] was “A (Group A: SI < 3)” and the “T. vaginalis Selectivity Indices, Group” value (T. vaginalis; SI, IC50 (μM)/IC50 (μM), HEK293 cytotoxicity, Alkyl Amidines and NH Pyrroles) was “A (Group A: SI < 8)”.

“N-(5-((5-(((Z)-3-(ethylamino)-3-(ethylimino)propyl)carbamoyl)-1-methyl-1H-pyrrol-3-yl)carbamoyl)-1-methyl-1H-pyrrol-3-yl)-6-((E)-3-methoxystyryl)nicotinamide [Ia26]” was tested, and the “MIC80 E. coli” value ([1]; MIC at 80% inhibition, ATCC 25922) was “— (— means MIC80 > 100 μM)”, the “MIC80 S. aureus” value ([2]; MIC at 80% inhibition, ATCC 43300) was “* (* means 25 μM < MIC80 <= 100 μM)” and the “MIC80 E. faecalis” value ([3]; MIC at 80% inhibition, ATCC 51299) was “— (— means MIC80 > 100 μM)”.
